Laboratory results from PMC9122598, “NASP maintains histone H3–H4 homeostasis through two distinct H3 binding modes” (Nucleic Acids Research, 2022).
“Also recorded” adds a separate entry of the source.

Assays:
Format in all cases: cell-based, human
[1] = test system: endogenous s- and t-NASP, histone H3; assay: Co-immunoprecipitation of sNASP-FLAG-Myc from HeLa S3; settings: HeLa S3, transient transfection
Method: Protein concentrations were measured using Pierce™ 660 nm Protein Assay Reagent (Thermo Scientific) or the Bradford protein assay (Bio-Rad). For immunoprecipitation, 2–3 mg of sNASP-FLAG-myc and sNASP-Strep-HA extracts were incubated for 3 hours at 4°C degrees with 50 μl of anti-Flag M2 (A2220, Sigma) or Anti-TwinStrep Mag-Strep beads (2–4090-002, Iba). After incubation, the beads were washed five times in ice-cold wash buffer (150 mM NaCl, 0.02% Nonidet P40, 50 mM Tris-HCl pH 7.6, 0.1 mM EDTA, 5% glycerol). Bound proteins were eluted with either Laemmli sample buffer 1X (LSB 4X: Tris-HCl (200 mM, pH 6.8), SDS 4%, glycerol (40%), DTT (100 mM)) or biotin elution buffer 1X (BXT buffer, 2–1042-025, Iba), respectively. Western blotting was performed as described previously ([11]). Western blots from three independent biological replicates were quantified using the software ImageJ, version 1.0.

[2] = test system: soluble histone H3–H4 pool; assay: Soluble histone pool in HCT116 NASP-dTAG cells (western blot of soluble extracts); settings: 5 μM dTAG-13 48 h, complementation with DOX-induced sNASP
Method: Unless stated otherwise cells were grown in DMEM with Glutamax (35050061, Gibco), 10% FBS (12389802, Hyclone) and 1% penicillin/streptomycin (15140122, Gibco) at 37°C with 5% CO2. HeLa S3 and HCT116 pLVX-TetOne-Puro cell lines were grown under Puromycin selection (1 μg/ml, P8833, Sigma). In Hela S3 and HCT116 pLVX-TetOne-Puro, the expression of sNASP-TwinStrep-HA, referred as sNASP-Strep-HA above, wt and mutants was induced by treatment with 2 μg/ml Doxycycline (631311, Clontech) for 24–48 hours. HCT116 NASP-FKBP12^F36V (NASP-dTAG) were treated with 0.2% DMSO (67–68-5, Sigma) or 5 μM dTAG-13 (6605, Tocris) for the indicated times, to induce the degradation of endogenous NASP. […] 24 hours after seeding, cells were treated with either 0.2% DMSO or 5 μM dTAG-13 for 48 hours, and cell viability was quantified with CellTiter-Blue® Cell Viability Assay (G8080, Promega), according to the manufacturer's instructions. […]
Protein concentrations were measured using Pierce™ 660 nm Protein Assay Reagent (Thermo Scientific) or the Bradford protein assay (Bio-Rad). […] Western blots from three independent biological replicates were quantified using the software ImageJ, version 1.0.

[3] = test system: HCT116 wt and NASP-dTAG cells; assay: Cell cycle distribution (high-content microscopy, EdU); settings: 5 μM dTAG-13, 48 h; mean n=3; ns = P>0.05
Method: HCTT116 wt and NASP-dTAG cells were seeded at a density of 3000 cells per well in 96 well plates (6055300, Cell carrier) and treated with either dTAG-13 (5 μM, 48 hours) or DMSO (0.2%, 48 hours). Before fixation, newly replicated DNA was labelled with EdU (20 mins, 10 μM) at 37°C. Cells were washed in ice-cold PBS, fixed (4% paraformaldehyde, 15 mins, 4°C) and washes twice in ice cold PBS. EdU staining followed the Click-iT plus Alexa647-picolyl azide protocol (Thermo Scientific) and DNA was stained with DAPI (4′,6-diamidino-2-phenylindole). Images were acquired on an Olympus ScanR high-content microscope and analysed with ScanR analysis software. Cell cycle gates were defined using mean EdU and total DAPI intensities.

[4] = test system: endogenous s- and t-NASP (NASP-FKBP12^F36V); assay: Depletion of endogenous NASP in NASP-dTAG cells (western blot, immunofluorescence); settings: HCT116 NASP-dTAG, 5 μM dTAG-13, 48 h
Method: Unless stated otherwise cells were grown in DMEM with Glutamax (35050061, Gibco), 10% FBS (12389802, Hyclone) and 1% penicillin/streptomycin (15140122, Gibco) at 37°C with 5% CO2. HeLa S3 and HCT116 pLVX-TetOne-Puro cell lines were grown under Puromycin selection (1 μg/ml, P8833, Sigma). In Hela S3 and HCT116 pLVX-TetOne-Puro, the expression of sNASP-TwinStrep-HA, referred as sNASP-Strep-HA above, wt and mutants was induced by treatment with 2 μg/ml Doxycycline (631311, Clontech) for 24–48 hours. HCT116 NASP-FKBP12^F36V (NASP-dTAG) were treated with 0.2% DMSO (67–68-5, Sigma) or 5 μM dTAG-13 (6605, Tocris) for the indicated times, to induce the degradation of endogenous NASP. […] 24 hours after seeding, cells were treated with either 0.2% DMSO or 5 μM dTAG-13 for 48 hours, and cell viability was quantified with CellTiter-Blue® Cell Viability Assay (G8080, Promega), according to the manufacturer's instructions.
Protein concentrations were measured using Pierce™ 660 nm Protein Assay Reagent (Thermo Scientific) or the Bradford protein assay (Bio-Rad). […] Western blots from three independent biological replicates were quantified using the software ImageJ, version 1.0. […]

[5] = test system: HCT116 wt and NASP-dTAG cells; assay: Cell viability (CellTiter-Blue); settings: 5 μM dTAG-13, 48 h; mean n=3; ns = P>0.05
Method: Unless stated otherwise cells were grown in DMEM with Glutamax (35050061, Gibco), 10% FBS (12389802, Hyclone) and 1% penicillin/streptomycin (15140122, Gibco) at 37°C with 5% CO2. HeLa S3 and HCT116 pLVX-TetOne-Puro cell lines were grown under Puromycin selection (1 μg/ml, P8833, Sigma). In Hela S3 and HCT116 pLVX-TetOne-Puro, the expression of sNASP-TwinStrep-HA, referred as sNASP-Strep-HA above, wt and mutants was induced by treatment with 2 μg/ml Doxycycline (631311, Clontech) for 24–48 hours. HCT116 NASP-FKBP12^F36V (NASP-dTAG) were treated with 0.2% DMSO (67–68-5, Sigma) or 5 μM dTAG-13 (6605, Tocris) for the indicated times, to induce the degradation of endogenous NASP. In the complementation experiments, HCT116 cells were simultaneously treated with 2 μg/ml Doxycycline and either 0.2% DMSO or 5 μM dTAG-13 for 48 hours, to ensure a synchronized degradation of the endogenous protein and expression of sNASP-Strep-HA wt or mutants. For cell viability experiments, HCT116 cells were seeded at low confluency in a 24 well plate. 24 hours after seeding, cells were treated with either 0.2% DMSO or 5 μM dTAG-13 for 48 hours, and cell viability was quantified with CellTiter-Blue® Cell Viability Assay (G8080, Promega), according to the manufacturer's instructions.

| Compound | Pull down of endogenous s- and t-NASP [1] | Pull down of histone H3 [1] | Level of soluble histones (H3, H4, H4K5ac) [2] | Cell cycle distribution [3] | Depletion of endogenous NASP [4] | Cell viability relative to DMSO [5] |
| --- | --- | --- | --- | --- | --- | --- |
| sNASP 6E mutant: sNASP-FLAG-Myc V265E I272E L282E V286E I300E L307E | impaired | efficiently pulled down histone H3 |  |  |  |  |
| sNASP wild type (wt): epitope-tagged sNASP wild type (FLAG-Myc or Strep-HA) | pulled down both endogenous s- and t- NASP |  | rescued the soluble histone pool |  |  |  |
| CC[C@H](C(=O)N1CCCC[C@H]1C(=O)O[C@H](CCc1ccc(OC)c(OC)c1)c1ccccc1OCC(=O)NCCCCCCOc1cccc2c1C(=O)N(C1CCC(=O)NC1=O)C2=O)c1cc(OC)c(OC)c(OC)c1 (some centres unmarked) [dTAG-13] |  |  | reduced the pool of soluble histone H3–H4 | non-significant; also recorded: without dramatic effects on cell cycle progression and cell proliferation | efficient and stable depletion of endogenous s- and t-NASP isoforms | non-significant; also recorded: without dramatic effects on cell cycle progression and cell proliferation |
